Test results taken from ChEMBL document CHEMBL3832761, “MMV Pathogen Box Bioactivity Data” (2017).
Converted amounts (≈) assume the structure as drawn.

Assays:
[1] = tested on: HepG2; assay: HepG2 inhibition at 10 uM (%) Cytotoxicity; format: functional; conditions: Homo sapiens
[2] = tested on: Plasmodium berghei; assay: Antimalarial activity: Liver Stage Plasmodium berghei sporozoite Luciferase assay: inhibition at 10 uM (%); format: functional
[3] = tested on: Plasmodium falciparum; assay: Antimalarial activity: Gametocytes Plasmodium falciparum NF54 Gametocytes Stage V: inhibition at 10 uM (%); format: functional
[4] = tested on: Plasmodium falciparum; assay: Antimalarial activity: Asexual Blood Stage Plasmodium falciparum 3D7 IC50 (uM); format: functional, organism-based
[5] = tested on: Plasmodium falciparum; assay: Antimalarial activity: Asexual Blood Stage Plasmodium falciparum Dd2 IC50 (uM); format: functional, organism-based
[6] = tested on: MRC5; assay: MRC5 CC50 (uM) Cytotoxicity; format: functional; conditions: Homo sapiens
[7] = tested on: Mycobacterium tuberculosis; assay: AntiMycobacterium tuberculosis activity 1-week GAST/Fe MIC (uM); format: functional; conditions: 168 h
[8] = tested on: Mycobacterium tuberculosis; assay: AntiMycobacterium tuberculosis activity 2-week 7H9/ADC/Tw MIC (uM); format: functional; conditions: 336 h
[9] = tested on: Mycobacterium tuberculosis; assay: AntiMycobacterium tuberculosis activity 1-week 7H9/cholesterol/BSA/Tx MIC (uM); format: functional; conditions: 168 h
[10] = tested on: HepG2; assay: HepG2 CC50 (uM) Cytotoxicity; format: functional; conditions: Homo sapiens
[11] = tested on: Mycobacterium tuberculosis; assay: AntiMycobacterium tuberculosis activity day 21 MIC99 in 7H9/2.5mM butyrate/pH6/0.1mM nitrite MIC99 (uM); format: functional; conditions: 504 h
[12] = tested on: Mycobacterium tuberculosis; assay: AntiMycobacterium tuberculosis activity 2-week Alamar Blue 7H9/ADC/Tw MIC (uM); format: functional; conditions: 336 h
[13] = tested on: Mycobacterium tuberculosis; assay: AntiMycobacterium tuberculosis activity 1-week 7H9/DPPC/cholesterol/BSA/Tx MIC (uM); format: functional; conditions: 168 h
[14] = tested on: Mycobacterium tuberculosis; assay: AntiMycobacterium tuberculosis activity 2-week GAST/Fe MIC (uM); format: functional; conditions: 336 h
[15] = tested on: Mycobacterium tuberculosis; assay: (§1) AntiMycobacterium tuberculosis activity day 10 in 7H9/2.5mM butyrate/pH6/0.1mM nitrite MIC90 (uM); format: functional; conditions: 240 h
[16] = tested on: Mycobacterium tuberculosis; assay: AntiMycobacterium tuberculosis activity Non-Replicating form: Average MIC90 (uM); format: functional
[17] = tested on: Mycobacterium tuberculosis; assay: AntiMycobacterium tuberculosis activity day 21 in 7H9/2.5mM butyrate/pH6/0.1mM nitrite MIC90 (uM); format: functional; conditions: 504 h
[18] = tested on: Mycobacterium tuberculosis; assay: AntiMycobacterium tuberculosis activity 1-week 7H9/glucose/BSA/Tx MIC (uM); format: functional; conditions: 168 h
[19] = tested on: Mycobacterium tuberculosis; assay: AntiMycobacterium tuberculosis activity 2-week 7H9/DPPC/cholesterol/BSA/Tx MIC (uM); format: functional; conditions: 336 h
[20] = tested on: Mycobacterium tuberculosis; assay: AntiMycobacterium tuberculosis activity 2-week Alamar Blue 7H9/cholesterol/BSA/Tx MIC (uM); format: functional; conditions: 336 h
[21] = tested on: Mycobacterium tuberculosis; assay: AntiMycobacterium tuberculosis activity 2-week 7H9/glucose/BSA/Tx MIC (uM); format: functional; conditions: 336 h
[22] = tested on: Mycobacterium tuberculosis; assay: AntiMycobacterium tuberculosis activity 1-week 7H9/ADC/Tw MIC (uM); format: functional; conditions: 168 h
[23] = tested on: Mycobacterium tuberculosis; assay: AntiMycobacterium tuberculosis activity Replicating form: Average MIC90 (uM); format: functional
[24] = tested on: Mycobacterium tuberculosis; assay: as §1; format: functional; conditions: 240 h; remark: listed apart in the source

Row | SMILES | MIC [7] | MIC [8] | MIC [9] | CC50 [10] | MIC [11] | MIC [12] | MIC [13] | MIC [14] | MIC90 [15] | MIC90 [16] | MIC90 [17] | MIC [18] | MIC [19] | MIC [20] | MIC [21] | MIC [22] | MIC90 [23] | MIC90 [24] | other results
1 | O=C(NC1CC1)c1ccc(CSCc2ccccc2Cl)o1 | – | – | – | – | – | – | – | – | – | – | – | – | – | – | – | – | – | – | inhibition at 10 µM [1]: 33%; Inhibition [2]: 96%; Inhibition [3]: 14.9%; IC50 [4]: 1.42 µM; IC50 [5]: > 2 µM
2 | O=C(NCCN1CCCC1)c1cc(NCCN2CCOCC2)nc2ccc(Cl)cc12 | – | – | – | – | – | – | – | – | – | – | – | – | – | – | – | – | – | – | inhibition [2]: Series known to be active; CC50 [6]: 33.5 µM; inhibition [3]: Series known to be active; IC50 [4]: 0.1 µM
3 | COc1ccc(Cn2cnc3c(-c4ccco4)nc(Cl)nc32)cc1 | 0.78 µM (≈ 0.266 µg/mL) | > 50 µM | 6.25 µM (≈ 2.13 µg/mL) | > 100 µM | > 50 µM | 19 µM (≈ 6.47 µg/mL) | 4.7 µM (≈ 1.6 µg/mL) | 1.56 µM (≈ 0.532 µg/mL) | > 50 µM | 8.43 µM (≈ 2.87 µg/mL) | > 50 µM | > 50 µM | > 50 µM | 3.13 µM (≈ 1.07 µg/mL) | > 50 µM | > 50 µM | > 100 µM | 50 µM (≈ 17 µg/mL) | –
4 | CCCn1c(CNc2ccccc2O)nc2ccccc21 | 1.56 µM (≈ 0.439 µg/mL) | 9.4 µM (≈ 2.64 µg/mL) | 6.25 µM (≈ 1.76 µg/mL) | 84.1 µM | > 50 µM | 6.25 µM (≈ 1.76 µg/mL) | 6.25 µM (≈ 1.76 µg/mL) | 1.56 µM (≈ 0.439 µg/mL) | > 50 µM | 7.04 µM (≈ 1.98 µg/mL) | 6.25 µM (≈ 1.76 µg/mL) | 12.5 µM (≈ 3.52 µg/mL) | 6.25 µM (≈ 1.76 µg/mL) | 6.25 µM (≈ 1.76 µg/mL) | 12.5 µM (≈ 3.52 µg/mL) | 9.4 µM (≈ 2.64 µg/mL) | 12.7 µM (≈ 3.57 µg/mL) | 3.12 µM (≈ 0.878 µg/mL) | –
5 | CC1COC2(CCN(c3nc(=O)c4cc(C(F)(F)F)cc([N+](=O)[O-])c4s3)CC2)O1 (configuration not stated) | < 0.02 µM | < 0.02 µM | < 0.02 µM | > 100 µM | ≤ 0.04 µM | < 0.02 µM | < 0.02 µM | < 0.02 µM | ≤ 0.04 µM | < 0.01 µM | ≤ 0.04 µM | < 0.02 µM | < 0.02 µM | < 0.02 µM | < 0.02 µM | < 0.02 µM | < 0.01 µM | ≤ 0.04 µM | –
6 | Nc1ncnc2c1ncn2[C@@H]1O[C@H](COS(=O)(=O)NC(=O)c2ccccc2O)[C@@H](O)[C@H]1O | 0.3 µM (≈ 0.14 µg/mL) | > 50 µM | > 50 µM | > 100 µM | > 50 µM | 9.4 µM (≈ 4.38 µg/mL) | > 50 µM | 0.6 µM (≈ 0.28 µg/mL) | > 50 µM | > 100 µM | > 50 µM | > 50 µM | > 50 µM | > 50 µM | > 50 µM | > 50 µM | > 100 µM | > 50 µM | –
7 | Cc1cc(OCC(=O)NCc2ccccc2)c2cc(Br)ccc2n1 | 0.2 µM (≈ 0.0771 µg/mL) | > 50 µM | 2.3 µM (≈ 0.886 µg/mL) | 31 µM | > 50 µM | 4.7 µM (≈ 1.81 µg/mL) | 3.13 µM (≈ 1.21 µg/mL) | 0.39 µM (≈ 0.15 µg/mL) | 25 µM (≈ 9.63 µg/mL) | 21.2 µM (≈ 8.17 µg/mL) | 6.25 µM (≈ 2.41 µg/mL) | 37 µM (≈ 14.3 µg/mL) | 25 µM (≈ 9.63 µg/mL) | 1.56 µM (≈ 0.601 µg/mL) | 50 µM (≈ 19.3 µg/mL) | 50 µM (≈ 19.3 µg/mL) | > 100 µM | 1.5 µM (≈ 0.578 µg/mL) | –
8 | Nc1nc2cc(-c3cncc(Oc4ccc(F)cc4)c3)ccc2[nH]1 | 6.25 µM (≈ 2 µg/mL) | 19 µM (≈ 6.09 µg/mL) | 12.5 µM (≈ 4 µg/mL) | 31.5 µM | 25 µM (≈ 8.01 µg/mL) | 19 µM (≈ 6.09 µg/mL) | 12.5 µM (≈ 4 µg/mL) | 6.25 µM (≈ 2 µg/mL) | 25 µM (≈ 8.01 µg/mL) | 41.2 µM (≈ 13.2 µg/mL) | 6.25 µM (≈ 2 µg/mL) | 19 µM (≈ 6.09 µg/mL) | 19 µM (≈ 6.09 µg/mL) | 12.5 µM (≈ 4 µg/mL) | 25 µM (≈ 8.01 µg/mL) | 19 µM (≈ 6.09 µg/mL) | 9.89 µM (≈ 3.17 µg/mL) | 6.25 µM (≈ 2 µg/mL) | –
9 | O=C(CCC1CCCCC1)Nc1cccc(-c2nnc(-c3ccco3)o2)c1 | 1.2 µM (≈ 0.439 µg/mL) | 2.3 µM (≈ 0.84 µg/mL) | 1.56 µM (≈ 0.57 µg/mL) | > 100 µM | 1.5 µM (≈ 0.548 µg/mL) | 2.3 µM (≈ 0.84 µg/mL) | 2.3 µM (≈ 0.84 µg/mL) | 1.2 µM (≈ 0.439 µg/mL) | 1.5 µM (≈ 0.548 µg/mL) | 13.7 µM (≈ 4.99 µg/mL) | 1.5 µM (≈ 0.548 µg/mL) | 2.3 µM (≈ 0.84 µg/mL) | 3.13 µM (≈ 1.14 µg/mL) | 3.13 µM (≈ 1.14 µg/mL) | 3.13 µM (≈ 1.14 µg/mL) | 1.2 µM (≈ 0.439 µg/mL) | 5.42 µM (≈ 1.98 µg/mL) | 1.5 µM (≈ 0.548 µg/mL) | –
10 | O=C(NCc1cc(Cl)cc(Cl)c1)c1c(C(F)(F)F)nc2ccccn12 | 0.1 µM (≈ 0.0388 µg/mL) | 37 µM (≈ 14.4 µg/mL) | 2.3 µM (≈ 0.893 µg/mL) | 38.3 µM | > 50 µM | 12.5 µM (≈ 4.85 µg/mL) | 4.7 µM (≈ 1.82 µg/mL) | 0.39 µM (≈ 0.151 µg/mL) | > 50 µM | 2.93 µM (≈ 1.14 µg/mL) | 12.5 µM (≈ 4.85 µg/mL) | > 50 µM | 12.5 µM (≈ 4.85 µg/mL) | 1.2 µM (≈ 0.466 µg/mL) | > 50 µM | 12.5 µM (≈ 4.85 µg/mL) | > 100 µM | 1.5 µM (≈ 0.582 µg/mL) | –
11 | N#Cc1ccc(-c2ccc(OCC(N)=O)cc2)cc1 | 4.7 µM (≈ 1.19 µg/mL) | > 50 µM | 12.5 µM (≈ 3.15 µg/mL) | > 100 µM | > 50 µM | 50 µM (≈ 12.6 µg/mL) | 12.5 µM (≈ 3.15 µg/mL) | 4.7 µM (≈ 1.19 µg/mL) | > 50 µM | 13.7 µM (≈ 3.46 µg/mL) | 25 µM (≈ 6.31 µg/mL) | 25 µM (≈ 6.31 µg/mL) | 50 µM (≈ 12.6 µg/mL) | ≥ 50 µM | 50 µM (≈ 12.6 µg/mL) | 37 µM (≈ 9.33 µg/mL) | 23.2 µM (≈ 5.86 µg/mL) | 25 µM (≈ 6.31 µg/mL) | –
12 | CCOC(=O)c1cc(-c2csc(Nc3c(C)cc(C)cc3C)n2)on1 | 12.5 µM (≈ 4.47 µg/mL) | 9.4 µM (≈ 3.36 µg/mL) | 1.56 µM (≈ 0.558 µg/mL) | 24.4 µM | 6.25 µM (≈ 2.23 µg/mL) | 6.25 µM (≈ 2.23 µg/mL) | 3.13 µM (≈ 1.12 µg/mL) | 12.5 µM (≈ 4.47 µg/mL) | 6.25 µM (≈ 2.23 µg/mL) | 13.8 µM (≈ 4.94 µg/mL) | 6.25 µM (≈ 2.23 µg/mL) | 3.13 µM (≈ 1.12 µg/mL) | 6.25 µM (≈ 2.23 µg/mL) | 3.13 µM (≈ 1.12 µg/mL) | 4.7 µM (≈ 1.68 µg/mL) | 4.7 µM (≈ 1.68 µg/mL) | 17.5 µM (≈ 6.26 µg/mL) | 3.1 µM (≈ 1.11 µg/mL) | –
13 | CCCc1ccc(S(=O)(=O)Nc2ccc(CN3CCN(CC4CC4)CC3)cc2)cc1 | 12.5 µM (≈ 5.35 µg/mL) | 19 µM (≈ 8.12 µg/mL) | 6.25 µM (≈ 2.67 µg/mL) | 17.7 µM | > 50 µM | 19 µM (≈ 8.12 µg/mL) | 4.7 µM (≈ 2.01 µg/mL) | 12.5 µM (≈ 5.35 µg/mL) | > 50 µM | 47.4 µM (≈ 20.3 µg/mL) | 50 µM (≈ 21.4 µg/mL) | 9.4 µM (≈ 4.02 µg/mL) | 6.25 µM (≈ 2.67 µg/mL) | 6.25 µM (≈ 2.67 µg/mL) | 9.4 µM (≈ 4.02 µg/mL) | 19 µM (≈ 8.12 µg/mL) | 18.7 µM (≈ 8.01 µg/mL) | 50 µM (≈ 21.4 µg/mL) | –
